Source: the Deep4Chem optical property database
One block for each compound: values may come before it.

Assay: solvent given as SMILES

SMILES: Cc1ccc(-n2c3ccccc3c3cc(C(=C(C#N)C#N)c4ccccc4)ccc32)cc1
- emission maximum (in C1CCOC1): 527 nm
- emission maximum (in CC#N): 545 nm
- emission maximum (in CC(C)=O): 567 nm
- emission maximum (in CCOC(C)=O): 540 nm
- emission maximum (in CO): 583 nm
- emission maximum (in CS(C)=O): 591 nm
- emission maximum (in Cc1ccccc1): 517 nm
- emission maximum (in ClC(Cl)Cl): 546 nm

SMILES: Nc1ccc(C#Cc2ccc3ccc4ccc(C#Cc5ccc(N)cc5)c5ccc2c3c45)cc1
- emission maximum (in C1COCCO1): 476 nm
- emission maximum (in CC(C)=O): 538 nm
- emission maximum (in CCCCCC): 444 nm
- emission maximum (in CCCCCCO): 534 nm
- emission maximum (in CCO): 540 nm
- emission maximum (in CCOC(C)=O): 506 nm
- emission maximum (in CO): 557 nm
- emission maximum (in Cc1ccccc1): 463 nm
- emission maximum (in ClCCl): 492 nm

SMILES: N#Cc1cc(C#N)c(-n2c3ccccc3c3cc(-c4ccc5c(c4)c4ccccc4n5-c4cc(-n5c6ccccc6c6ccccc65)c(C#N)cc4C#N)ccc32)cc1-n1c2ccccc2c2ccccc21
- emission maximum (in O=P(c1ccccc1)(c1ccccc1)c1ccccc1Oc1ccccc1P(=O)(c1ccccc1)c1ccccc1): 470 nm

SMILES: COc1ccc(/C=C/C=C/C2=NC3C(=O)NC(N)=NC3N2[C@H]2C[C@H](O)[C@@H](CO)O2)cc1 (stereo not given in full)
- emission maximum (in C1COCCO1): 429 nm
- emission maximum (in CC#N): 441 nm
- emission maximum (in CO): 438 nm

SMILES: CN(C)c1ccc(/C=C/c2nc3ccccc3s2)cc1
- emission maximum (in C1CCCCC1): 447 nm
- emission maximum (in C1CCOC1): 482 nm
- emission maximum (in C1COCCO1): 467 nm
- emission maximum (in CC#N): 504 nm
- emission maximum (in CC(C)O): 493 nm
- emission maximum (in CCCCCC): 445 nm
- emission maximum (in CCCCCCC): 446 nm
- emission maximum (in CCO): 498 nm
- emission maximum (in CCOC(C)=O): 477 nm
- emission maximum (in CCOCC): 460 nm
- emission maximum (in CN(C)C=O): 504 nm
- emission maximum (in CO): 507 nm
- emission maximum (in CS(C)=O): 513 nm
- emission maximum (in O): 516 nm
- emission maximum (in OCC(O)CO): 530 nm

SMILES: O=C(c1ccccc1)c1cc2ccc1CCc1ccc(c(-c3ccc(N(c4ccccc4)c4ccccc4)cc3)c1)CC2
- emission maximum (in Cc1ccccc1): 455 nm
- emission maximum (in c1cc(-n2c3ccccc3c3ccccc32)cc(-n2c3ccccc3c3ccccc32)c1): 468.87 nm

SMILES: CN(C)c1c2ccccc2cc2ccccc12
- emission maximum (in C1CCCCC1): 391 nm
- emission maximum (in C1CCOC1): 392 nm
- emission maximum (in C1COCCO1): 392 nm
- emission maximum (in CC#N): 390 nm
- emission maximum (in CCO): 389 nm
- emission maximum (in CN(C)C=O): 392 nm
- emission maximum (in CO): 389 nm
- emission maximum (in COCCOC): 392 nm
- emission maximum (in CS(C)=O): 395 nm
- emission maximum (in O): 390 nm
- emission maximum (in OCC(O)CO): 393 nm
- emission maximum (in OCCO): 392 nm

SMILES: COc1ccc(C2=[N+]3C(=Nc4c(-c5cc(OC)c(OC)c(OC)c5)cc(-c5ccc(OC)cc5)n4[B-]3(F)F)C(c3cc(OC)c(OC)c(OC)c3)=C2)cc1
- emission maximum (in Cc1ccccc1): 724 nm

SMILES: CN(C)c1ccc(-c2c(/C=C3/C=Cc4ccccc4N3Cc3ccccc3)c(=O)c2=O)cc1
- emission maximum (in C1CCCCC1): 427 nm
- emission maximum (in Cc1ccccc1): 435 nm
- emission maximum (in ClCCl): 586 nm

SMILES: c1ccc(-c2ccc(-c3ccc(N(c4ccccc4)c4ccccc4)cc3)c3nsnc23)cc1
- emission maximum (in C1CCOC1): 578 nm
- emission maximum (in CC(C)=O): 619 nm
- emission maximum (in CCCCCC): 526 nm
- emission maximum (in CCOCC): 558 nm

SMILES: Cc1ccc2cc(C)ccc2c1
- emission maximum (in C1CCCCC1): 342.82 nm

SMILES: COc1ccc(C2=CC(c3ccc4cc(N(C)C)ccc4c3)=[O+][B-](F)(F)O2)cc1
- emission maximum (in C1CCOC1): 618 nm
- emission maximum (in CC#N): 681 nm
- emission maximum (in CC(C)=O): 660 nm
- emission maximum (in CS(C)=O): 698 nm
- emission maximum (in Cc1ccccc1): 555 nm
- emission maximum (in ClC(Cl)Cl): 596 nm
- emission maximum (in ClCCl): 631 nm

SMILES: Nc1nc2c(ncn2[C@H]2C[C@H](O)[C@@H](CO)O2)c(=O)[nH]1
- emission maximum (in O): 338.98 nm

SMILES: COc1cc2c3cc(OC)c(OC)cc3c3cc4c(C)cc(=O)oc4cc3c2cc1OC
- emission maximum (in C1CCOC1): 489 nm
- emission maximum (in CO): 556 nm
- emission maximum (in CS(C)=O): 519 nm
- emission maximum (in Cc1ccccc1): 463 nm
- emission maximum (in ClC(Cl)Cl): 491 nm

SMILES: c1ccc2nc(-n3c4ccccc4c4ccccc43)c(-n3c4ccccc4c4ccccc43)nc2c1
- emission maximum (in C1CCOC1): 516.79 nm
- emission maximum (in CCCCCC): 467.18 nm
- emission maximum (in Cc1ccccc1): 503 nm

SMILES: COC(=O)CN1C(=O)c2cc3ccc(N(C)C)cc3cc2C1=O
- emission maximum (in C1CCOC1): 510 nm
- emission maximum (in CC#N): 549 nm
- emission maximum (in CC(C)=O): 532 nm
- emission maximum (in CCO): 584 nm
- emission maximum (in Cc1ccccc1): 491 nm
- emission maximum (in ClC(Cl)Cl): 509 nm

SMILES: CC1(C)c2ccccc2N(c2cc3c4ccccc4n4c5ccccc5c(c2)c34)c2ccccc21
- emission maximum (in C1CCCCC1): 416.92 nm
- emission maximum (in C1CCOC1): 470.91 nm
- emission maximum (in Cc1ccccc1): 439 nm

SMILES: C[C@]12C(=O)NC(=O)N([C@H]3CC(O)[C@@H](CO)O3)[C@H]1[C@H]1Oc3cc4oc(=O)ccc4cc3[C@H]12 (stereo not given in full)
- emission maximum (in CC(C)O): 428 nm
- emission maximum (in CCO): 432 nm
- emission maximum (in CCOCC): 410 nm
- emission maximum (in CO): 446 nm
- emission maximum (in O): 465 nm

SMILES: CCCCCCC(CCCCCC)N1C(=O)c2cccc3c(-c4cc(OC)c(OC)c(OC)c4)ccc(c23)C1=O
- emission maximum (in CCCCCC): 440.2 nm
- emission maximum (in CCCCCCCCCCCCCC): 442.3 nm
- emission maximum (in CCCCCCCCCCCO): 526.4 nm
- emission maximum (in CCCCO): 572 nm
- emission maximum (in CN(C)C=O): 618.8 nm
- emission maximum (in Cc1ccccc1): 492.4 nm
- emission maximum (in ClC(Cl)Cl): 525.1 nm

SMILES: CC[n+]1c(C=C2C(=O)C(C=C3N(C)c4ccc(Cl)cc4C3(C)C)=C2[O-])[se]c2ccccc21
- emission maximum (in CO): 662 nm
- emission maximum (in ClC(Cl)Cl): 677 nm

SMILES: COc1ccc(-c2csc(/C(C#N)=C/c3ccc(C#N)cc3)n2)cc1
- emission maximum (in CC#N): 561 nm
- emission maximum (in CCO): 555 nm
- emission maximum (in CN(C)C=O): 570 nm
- emission maximum (in Cc1ccccc1): 519 nm
- emission maximum (in ClCCl): 554 nm

SMILES: c1cc2ccc3cc4cccc5ccc6cc(c1)c2c3c6c54
- emission maximum (in C1CCCCC1): 436 nm
- emission maximum (in CC#N): 436 nm
- emission maximum (in CO): 436 nm
- emission maximum (in Cc1ccccc1): 436 nm
- emission maximum (in ClCCl): 437 nm

Second part, the compound after the results:

- emission maximum (in C1CCOC1): 731 nm
SMILES: CC(C)(C)c1cc2c3c(c1)-c1cccc4c1N(B3N1c3ccccc3Sc3cccc-2c31)c1ccccc1S4

- emission maximum (in ClC(Cl)Cl): 440 nm
SMILES: c1ccc(-n2c(-c3ccc(-c4ccc5c(c4)C4(c6ccccc6-5)c5ccccc5-c5ccc(-c6ccc(-c7nc8ccccc8n7-c7ccccc7)cc6)c6cccc4c56)cc3)nc3ccccc32)cc1 (stereo not given)

- emission maximum (in ClCCl): 540 nm
SMILES: CSc1nccc(/C=C/c2ccc(N(c3ccccc3)c3ccc(/C=C/c4ccnc(SC)n4)cc3)cc2)n1

- emission maximum (in CC#N): 543 nm
SMILES: COc1ccc(-c2csc(/C(C#N)=C/c3ccc(Cl)cc3)n2)cc1

- emission maximum (in ClCCl): 693 nm
SMILES: CC1=[N+]2C(=Cc3c4c(cn3[B-]2(F)F)-c2nc-4c(-c3ccccc3)c3ccc([nH]3)c(-c3ccccc3)c3nc(c(-c4ccccc4)c4ccc([nH]4)c2-c2ccccc2)C=C3)C(C)C1 (stereo not given)

- emission maximum (in ClCCl): 493 nm
SMILES: S=P1(c2ccccc2)c2cccc3c4c5ccccc5c5ccccc5c4c4ccc1n4c23 (stereo not given)

- emission maximum (in ClCCl): 521 nm
SMILES: CCCCCCN1C(=O)c2cccc3c(-c4ccc(-c5cc(-c6ccc(OC)cc6)n(-c6ccccc6)n5)s4)ccc(c23)C1=O

- emission maximum (in C1CCCCC1): 406 nm
- emission maximum (in C1CCOC1): 412 nm
- emission maximum (in C1COCCO1): 410 nm
- emission maximum (in CC#N): 421 nm
- emission maximum (in CC(C)(C)O): 414 nm
- emission maximum (in CC(C)O): 418 nm
- emission maximum (in CCCCCC): 402 nm
- emission maximum (in CCCCO): 420 nm
- emission maximum (in CCO): 422 nm
- emission maximum (in CCOC(C)=O): 412 nm
- emission maximum (in CN(C)C=O): 423 nm
- emission maximum (in CO): 428 nm
- emission maximum (in CS(C)=O): 431 nm
- emission maximum (in ClC(Cl)Cl): 415 nm
- emission maximum (in ClCCl): 420 nm
- emission maximum (in O): 444 nm
- emission maximum (in OCCO): 429 nm
SMILES: CCc1ccc(/C=N/c2cc(C(C)C)c(O)cc2C)cc1

- emission maximum (in CC#N): 673 nm
- emission maximum (in ClC(Cl)Cl): 672 nm
SMILES: F[B-]1(F)n2c(-c3ccccc3)cc(-c3ccccc3)c2N=C2C(c3ccccc3)=CC(c3ccccc3)=[N+]21

- emission maximum (in C1CCCCC1): 383 nm
- emission maximum (in CC#N): 388 nm
- emission maximum (in CO): 394 nm
SMILES: Cc1cc(C)c(C)c(-c2ccc3cc(C)c(=O)oc3c2)c1C

- emission maximum (in ClCCl): 643 nm
SMILES: c1cc2ccc3[s+]c4ccc5cccc6c7cccc8c(c1)c2c3c(c87)c4c56

- emission maximum (in C1CCCCC1): 375 nm
SMILES: c1ccc(-c2c3c(c(-c4ccccc4)c4c2-c2ccccc2C4)-c2ccccc2C3)cc1

- emission maximum (in ClC(Cl)Cl): 653 nm
SMILES: CCCCCCCCc1ccc(-c2c3cc(-c4cc(CCCCCCCC)c(-c5ccc(-c6sc(/C=C7\SC(SCC)=NC7=O)cc6CCCCCCCC)s5)s4)sc3c(-c3ccc(CCCCCCCC)s3)c3cc(-c4cc(CCCCCCCC)c(-c5ccc(-c6sc(/C=C7\SC(SCC)=NC7=O)cc6CCCCCCCC)s5)s4)sc23)s1

- emission maximum (in ClCCl): 585 nm
SMILES: CC1=C(c2ccccc2)C(C)=[N+]2C1=C(c1c(-c3ccccn3)nc3ccccn13)c1c(C)c(-c3ccccc3)c(C)n1[B-]2(F)F

- emission maximum (in ClCCl): 452 nm
SMILES: C(#Cc1c(C#Cc2ccccc2)c(C#Cc2ccccc2)c(C#Cc2ccccc2)c(C#Cc2ccccc2)c1C#Cc1ccccc1)c1ccccc1

- emission maximum (in CCCCCC): 471 nm
SMILES: CCc1c(C(=O)OC)c(C(=O)OC)c2ccc(-c3ccccc3)nn12

- emission maximum (in ClCCl): 525 nm
SMILES: COc1ccc(N(c2ccc(OC)cc2)c2cc(N(c3ccc(OC)cc3)c3ccc(OC)cc3)c3ccc4cc(C(C)(C)C)cc5ccc2c3c54)cc1

- emission maximum (in ClCCl): 411 nm
SMILES: c1cc(-c2ccc3sc4ccccc4c3c2)cc(-c2cc(-c3cccc(-c4ccc5sc6ccccc6c5c4)c3)ncn2)c1

- emission maximum (in ClCCl): 423 nm
SMILES: CCn1c2ccccc2c2cccc(N(c3ccccc3)c3ccccc3)c21

- emission maximum (in ClCCl): 564 nm
SMILES: COc1ccc2cc(/C=C/C3=C4CCc5ccccc5C4=[O+][B-](F)(F)O3)ccc2c1

- emission maximum (in ClC(Cl)Cl): 442 nm
SMILES: Cc1ccc(C2CC(=O)Oc3c2c2nc4ccc(C)cc4nc2c2ccccc32)cc1 (stereo not given)

- emission maximum (in ClCCl): 455 nm
SMILES: O=c1oc2ccccc2c2c1c(=O)oc1cc(O)ccc12

- emission maximum (in ClC(Cl)Cl): 422 nm
SMILES: c1ccc2c3c(ccc2c1)C1(c2cc(-c4ccc5ccc6cccc7ccc4c5c67)ccc2-c2ccc(-c4ccc5ccc6cccc7ccc4c5c67)cc21)c1ccc2ccccc2c1O3
